Experimental findings from ChEMBL document CHEMBL6127041, “Dual-target inhibitors based on acetylcholinesterase: Novel agents for Alzheimer's disease” (Eur J Med Chem, 2024) are described below.

The target of assay [1] is T1, Acetylcholinesterase (Homo sapiens, UniProt P22303). The experiment in a line: Inhibition of human AChE using acetylthiocholine iodide as substrate after 15 mins by Ellman's method. A general note: In Ellman's method for cholinesterases, released thiocholine reacts with DTNB.
The target of assay [2] is T1, Acetylcholinesterase. The experiment in a line: Inhibition of human AChE using acetylthiocholine iodide as substrate measured for 1 hr by Ellman's method.
For assay [3], the target named is T2, Cholinesterase (Homo sapiens, UniProt P06276). The experiment in a line: Inhibition of human BChE using butyrylthiocholineiodide as substrate measured for 30 mins by Ellman's method.
The target in assay [4] is T1, Acetylcholinesterase. As to the kind of experiment: Inhibition of human AChE using acetylthiocholine iodide as substrate preincubated for 15 mins followed by substrate addition and measured for 30 mins by Ellman's method.
For assay [5], the target named is T1, Acetylcholinesterase. The experiment in a line: Inhibition of AChE (unknown origin).
Assay [6] addresses T3, Amine oxidase [flavin-containing] B (Homo sapiens, UniProt P27338).
T3 sequence (P27338 whole entry): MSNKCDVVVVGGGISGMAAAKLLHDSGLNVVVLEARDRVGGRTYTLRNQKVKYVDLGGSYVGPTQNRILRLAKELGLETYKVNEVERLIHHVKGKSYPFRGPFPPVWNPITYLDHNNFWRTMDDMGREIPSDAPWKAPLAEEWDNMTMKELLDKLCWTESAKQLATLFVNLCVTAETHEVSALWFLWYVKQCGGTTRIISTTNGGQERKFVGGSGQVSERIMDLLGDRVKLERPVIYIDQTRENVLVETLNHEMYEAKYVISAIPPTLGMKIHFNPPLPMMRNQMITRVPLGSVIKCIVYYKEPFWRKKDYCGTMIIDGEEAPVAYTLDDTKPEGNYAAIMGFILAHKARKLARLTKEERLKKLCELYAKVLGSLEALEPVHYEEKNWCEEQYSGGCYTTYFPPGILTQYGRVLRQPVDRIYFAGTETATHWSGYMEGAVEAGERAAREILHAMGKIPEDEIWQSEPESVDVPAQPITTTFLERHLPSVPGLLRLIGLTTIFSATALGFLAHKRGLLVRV
As to the kind of experiment: Inhibition of human MAO-B using Tyramine hydrochloride as substrate preincubated for 30 mins followed by substrate addition and measured for 1 hr by fluorometric method.

In the next assay the target is Beta-secretase 1 (Homo sapiens, UniProt P56817). The experiment in a line: Inhibition of human BACE-1 by FRET assay.
A further assay concerns SH-SY5Y. The experiment in a line: Cytotoxicity against human SH-SY5Y cells assessed as reduction in cell viability at 10 uM measured after 24 hrs by MTT assay relative to control. The assay is classed as functional. On the technique in general: Tetrazolium assays rely on reduction of a dye to a coloured formazan, in cell work by metabolically active cells.
The target in assay [7] is T1, Acetylcholinesterase.
Assay [8] concerns the target T4, Acetylcholinesterase (Electrophorus electricus, UniProt O42275). The experiment in a line: Inhibition of electric eel AChE.
The target of assay [9] is T4, Acetylcholinesterase. As to the kind of experiment: Inhibition of electric eel AChE by Ellman's method.
For assay [10], the target named is T5, Glycogen synthase kinase-3 beta (Homo sapiens, UniProt P49841).
Description: Inhibition of human GSK3beta by TR-FRET analysis
In assay [11] the target is T2, Cholinesterase. The experiment in a line: Inhibition of BChE (unknown origin).
Assay [12] has as its target High affinity cGMP-specific 3',5'-cyclic phosphodiesterase 9A (Homo sapiens, UniProt O76083). As to the kind of experiment: Inhibition of PDE9A (unknown origin).
The target in assay [13] is T1, Acetylcholinesterase. As to the kind of experiment: Inhibition of AChE (unknown origin) by Ellman's method.
In assay [14] the target is cGMP-specific 3',5'-cyclic phosphodiesterase (Homo sapiens, UniProt O76074). As to the kind of experiment: Inhibition of PDE5A (unknown origin) using […] as substrate measured after 1 hr by fluorescence polarization assay.
In assay [15] the target is T5, Glycogen synthase kinase-3 beta. The experiment in a line: Inhibition of GSK3beta (unknown origin).

T1 sequence (P22303 whole entry): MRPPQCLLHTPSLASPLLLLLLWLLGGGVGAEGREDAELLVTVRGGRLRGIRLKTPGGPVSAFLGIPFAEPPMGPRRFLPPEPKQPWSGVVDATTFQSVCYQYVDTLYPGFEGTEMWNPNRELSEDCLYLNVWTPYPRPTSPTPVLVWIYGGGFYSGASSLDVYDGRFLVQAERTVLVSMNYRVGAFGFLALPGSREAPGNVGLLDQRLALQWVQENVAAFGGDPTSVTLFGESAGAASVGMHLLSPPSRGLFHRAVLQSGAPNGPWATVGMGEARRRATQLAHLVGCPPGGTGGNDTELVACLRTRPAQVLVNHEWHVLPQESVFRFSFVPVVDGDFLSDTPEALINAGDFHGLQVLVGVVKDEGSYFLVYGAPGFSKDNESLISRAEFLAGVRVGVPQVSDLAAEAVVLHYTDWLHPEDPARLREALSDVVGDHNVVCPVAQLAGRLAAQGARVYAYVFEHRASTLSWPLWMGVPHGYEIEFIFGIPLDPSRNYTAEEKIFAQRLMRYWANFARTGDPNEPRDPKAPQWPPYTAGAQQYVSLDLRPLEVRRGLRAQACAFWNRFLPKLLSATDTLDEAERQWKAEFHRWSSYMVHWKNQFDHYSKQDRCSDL
T2 sequence (P06276 whole entry): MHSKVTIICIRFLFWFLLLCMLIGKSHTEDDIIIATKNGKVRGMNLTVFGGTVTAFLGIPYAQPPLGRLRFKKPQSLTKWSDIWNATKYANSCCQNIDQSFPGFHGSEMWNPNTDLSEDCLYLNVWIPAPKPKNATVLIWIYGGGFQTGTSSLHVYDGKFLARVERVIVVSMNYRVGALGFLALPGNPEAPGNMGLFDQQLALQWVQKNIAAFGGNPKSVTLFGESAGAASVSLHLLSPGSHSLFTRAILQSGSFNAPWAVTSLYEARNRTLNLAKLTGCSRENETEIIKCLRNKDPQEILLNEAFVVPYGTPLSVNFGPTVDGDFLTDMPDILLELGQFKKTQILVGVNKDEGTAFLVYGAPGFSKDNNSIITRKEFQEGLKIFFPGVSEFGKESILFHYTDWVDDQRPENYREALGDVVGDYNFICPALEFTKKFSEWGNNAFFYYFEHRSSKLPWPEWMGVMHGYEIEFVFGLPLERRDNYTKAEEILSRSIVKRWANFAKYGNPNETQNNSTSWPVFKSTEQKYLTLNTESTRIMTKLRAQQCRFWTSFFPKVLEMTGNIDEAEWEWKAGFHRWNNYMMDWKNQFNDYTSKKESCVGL
T5 sequence (P49841 whole entry): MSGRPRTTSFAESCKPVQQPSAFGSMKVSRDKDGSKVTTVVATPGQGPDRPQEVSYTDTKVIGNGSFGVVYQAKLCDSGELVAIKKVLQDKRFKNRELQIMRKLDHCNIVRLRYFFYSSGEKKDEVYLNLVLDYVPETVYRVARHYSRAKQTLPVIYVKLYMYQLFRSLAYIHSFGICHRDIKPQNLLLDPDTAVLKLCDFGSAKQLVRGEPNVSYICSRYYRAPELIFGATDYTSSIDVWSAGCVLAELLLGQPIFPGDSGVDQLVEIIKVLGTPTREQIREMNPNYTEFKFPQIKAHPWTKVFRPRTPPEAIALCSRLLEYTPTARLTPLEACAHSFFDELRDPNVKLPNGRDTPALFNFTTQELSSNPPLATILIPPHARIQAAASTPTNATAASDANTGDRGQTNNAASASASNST
T4 sequence (O42275 whole entry): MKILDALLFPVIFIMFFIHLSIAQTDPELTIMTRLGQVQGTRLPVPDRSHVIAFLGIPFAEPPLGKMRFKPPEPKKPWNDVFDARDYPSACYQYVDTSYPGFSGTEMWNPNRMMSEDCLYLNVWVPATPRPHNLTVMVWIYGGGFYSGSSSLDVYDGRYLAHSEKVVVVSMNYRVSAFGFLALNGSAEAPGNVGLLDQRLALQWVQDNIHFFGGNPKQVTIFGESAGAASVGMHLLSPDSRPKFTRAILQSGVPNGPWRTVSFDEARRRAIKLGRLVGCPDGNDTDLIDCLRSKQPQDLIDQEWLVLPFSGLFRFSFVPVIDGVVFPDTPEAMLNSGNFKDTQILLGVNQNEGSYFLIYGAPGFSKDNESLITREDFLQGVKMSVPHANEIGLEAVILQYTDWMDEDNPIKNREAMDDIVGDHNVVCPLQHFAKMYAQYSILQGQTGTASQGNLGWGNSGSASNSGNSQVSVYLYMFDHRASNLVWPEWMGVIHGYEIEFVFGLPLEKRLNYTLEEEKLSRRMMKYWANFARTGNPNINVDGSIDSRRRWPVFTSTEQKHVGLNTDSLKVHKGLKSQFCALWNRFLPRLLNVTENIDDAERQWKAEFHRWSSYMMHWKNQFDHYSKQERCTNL
Chain of High affinity cGMP-specific 3',5'-cyclic phosphodiesterase 9A (O76083 whole entry): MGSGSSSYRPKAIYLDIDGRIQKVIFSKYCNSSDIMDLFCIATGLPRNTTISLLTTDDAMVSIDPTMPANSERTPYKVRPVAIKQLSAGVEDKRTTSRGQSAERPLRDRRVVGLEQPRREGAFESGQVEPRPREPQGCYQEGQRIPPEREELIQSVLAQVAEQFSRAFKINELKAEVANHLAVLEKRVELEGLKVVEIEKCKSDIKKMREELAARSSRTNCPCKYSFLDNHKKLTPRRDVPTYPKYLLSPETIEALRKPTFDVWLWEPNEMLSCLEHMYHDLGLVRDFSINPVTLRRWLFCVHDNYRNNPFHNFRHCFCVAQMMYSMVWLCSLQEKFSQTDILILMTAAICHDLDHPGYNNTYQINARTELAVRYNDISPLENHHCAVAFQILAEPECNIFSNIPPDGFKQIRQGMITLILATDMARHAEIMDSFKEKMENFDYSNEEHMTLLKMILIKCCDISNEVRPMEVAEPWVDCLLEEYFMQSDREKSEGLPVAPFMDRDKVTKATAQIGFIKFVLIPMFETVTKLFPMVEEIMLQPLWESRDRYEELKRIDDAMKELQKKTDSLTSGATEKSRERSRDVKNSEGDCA
Chain of Beta-secretase 1 (P56817 whole entry): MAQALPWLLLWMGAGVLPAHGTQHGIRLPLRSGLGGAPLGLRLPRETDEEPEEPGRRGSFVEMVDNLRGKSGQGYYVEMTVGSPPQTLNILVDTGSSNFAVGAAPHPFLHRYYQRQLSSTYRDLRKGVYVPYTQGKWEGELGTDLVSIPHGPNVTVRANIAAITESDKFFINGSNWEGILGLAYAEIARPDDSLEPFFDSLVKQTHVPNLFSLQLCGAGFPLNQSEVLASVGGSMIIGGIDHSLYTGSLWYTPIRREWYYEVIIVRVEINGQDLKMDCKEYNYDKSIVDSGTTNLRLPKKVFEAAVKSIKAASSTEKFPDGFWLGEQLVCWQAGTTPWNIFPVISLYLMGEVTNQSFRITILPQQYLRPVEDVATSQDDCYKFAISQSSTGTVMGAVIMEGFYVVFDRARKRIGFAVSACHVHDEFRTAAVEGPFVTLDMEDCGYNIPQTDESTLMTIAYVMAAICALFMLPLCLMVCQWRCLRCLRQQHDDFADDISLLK

In general, IC50 refers to the midpoint of a concentration-inhibition curve. A low value points to greater potency. On to `CNC(=O)c1sc(-c2ccnc(NC(=O)C3CC3)c2)nc1OC1CCN(Cc2ccccc2)CC1`, for which half-maximal inhibition on Acetylcholinesterase [1] (IC50) required 73 nM.
Take `[O-]/[N+](=C\c1ccc2cccc(O)c2n1)Cc1ccccc1`: the figures for the IC50 on Acetylcholinesterase [2] and at Cholinesterase [3] were 30 nM and 1 nM, respectively.
`O=C1/C(=C/c2ccc(O)cc2)Oc2cc(O)ccc21` had an IC50 against Acetylcholinesterase [4] of 202000 nM.
Take `COc1ccc(/C=C/C(=O)c2ccccc2O)cc1OC`: the half-maximal inhibitory concentration (IC50) amounted to 28000 nM on Acetylcholinesterase [5] and 1410 nM in assay [6].
As for `c1ccc2oc(CNCCCCCCCNc3c4c(cc5ccccc35)CCCC4)cc2c1`, the IC50 was 1350 nM on Beta-secretase 1 and 0.86 nM on Acetylcholinesterase [7]. The Activity with SH-SY5Y was found to be 63%.
`O=C1c2c(O)cc(OCCCCCN3CCCCC3)cc2OC2C=CC=CC12` (stereo not drawn): the half-inhibitory concentration (IC50) against Acetylcholinesterase [8] was 469 nM.
For `O=CNc1nccc2c1[nH]c1cc(C(=O)NCCC3CCN(Cc4ccccc4F)CC3)ccc12`, the IC50 was determined as 270 nM at Acetylcholinesterase [9] and 6780 nM in assay [10].
Consider `O=c1[nH]c(CNCCC2CCN(Cc3ccccc3)CC2)nc2c1cnn2C1CCCC1`, for which the IC50 was determined as 290 nM against Acetylcholinesterase [5], 5800 nM against Cholinesterase [11] and 380 nM in [12].
Regarding `O=C1[C@H]2Cc3c([nH]c4ccccc34)[C@@H](c3ccc4c(c3)OCO4)N2C(=O)CN1CCC1CCN(Cc2ccccc2)CC1`, the IC50 against Acetylcholinesterase [13] amounted to 30 nM; in assay [14] it was 150 nM.
In assay [15], `Cn1c(NCC(=O)c2ccccc2)nc(-c2ccncc2)cc1=O` came in with an IC50 of 5630 nM. That is a single-digit micromolar value.
